Assay type in all cases: cell-based
The subject of experiment [1] is My5. The experiment is described as follows: Cell proliferation inhibition, MTT assay, My5. The conditions noted are these: Homo sapiens, Multiple myeloma cell, 72 h, My5 multiple myeloma cells, 3-day proliferation. The source says: (§1) IGF1R and other tyrosine kinase inhibitors can inhibit the proliferation of certain cancer cell lines indicating their possible therapeutic utility for treating the corresponding cancer types. Cancer cell lines of interest and control normal lines, including CHO, HEK293, BA/F3, COLO205, PC3, DU145, MCF7, Panc1, ACHN, Hep G2, H460, K562, TT, U87-MG, CAOV-3, SK-MEL5, Karpas 299 and human multiple myeloma cell lines H929, MM1s, MM1r, UTMC2, CPM2, KMS11, My5, KMS12PE, My7, JJN3, KMS18, U266, SKMM2, RPMI-8226 are plated in white, clear-bottomed 384-well cell culture plates at 2500-5000 cells per well and supplied with dilutions of tested compounds After a desired period of time (typically 3 days), the number of viable cells is quantitated by using Cell Titer-Glo Luminescent Cell Viability Assay (Promega), a cell proliferation assay system based on detection of total amount of ATP present as a measure of cell metabolic activity. The plated cells are mixed with the Cell Titer-Glo developing reagent and counted in a luminescence multiwell plate reader according to the standard manufacturer's protocol to generate IC50 curves for cell proliferation inhibition. Results are typically reported as percent of growth (% viability =(OD72h(compound)−ODday0))/(OD72h(no compound)−ODday0). Alternatively, viable cells are quantitated by using the conventional colorimetric MTT assay. The MTT assay is based on the cleavage of the yellow tetrazolium salt MTT to purple formazan crystal by metabolic active cells. The formazan is then solubilized, and the concentration determined by optical density at 570 nm. The cells plated and incubated with a compound as described above are supplemented with the solution of MTT and incubated for 2-3 hours. The growth medium is removed and dimethyl sulfoxide is added into each well to dissolve the formazan. The absorbance is measured on an ELISA plate reader with a test wavelength of 570 nm and a background subtraction wavelength of 630 nm to obtain sample signal (OD570-OD630). […] The results are reported in terms of IC50 value for a particular compound and a cell line in the standard 3-day proliferation assay using Cell Titer-Glo. […] The results are reported in terms of IC50 value for a particular compound and a cell line in the standard 3-day proliferation assay using MTT assay.
On the technique in general: Tetrazolium dyes change colour on reduction, which living cells bring about.

The test system of experiment [2] is RPMI-8226. The experiment in a line: Cell proliferation inhibition, MTT assay, RPMI-8226. The following applies: Homo sapiens, 72 h, RPMI-8226 multiple myeloma cells, 3-day proliferation.
From the text: as §1

In experiment [3] the test system is KMS12PE. The experiment is described as follows: Cell proliferation inhibition, MTT assay, KMS12PE. The conditions noted are these: Homo sapiens, 72 h, KMS-12PE multiple myeloma cells, 3-day proliferation.
From the text: as §1

The test system of experiment [4] is JJN3. The experiment in a line: Cell proliferation inhibition, MTT assay, JJN3. The conditions noted are these: Homo sapiens, JJN-3, 72 h, JJN3 multiple myeloma cells, 3-day proliferation.
From the text: as §1

In experiment [5] the test system is KMS18. The experiment in a line: Cell proliferation inhibition, MTT assay, KMS18. The following applies: Homo sapiens, 72 h, KMS18 multiple myeloma cells, 3-day proliferation.
From the text: as §1

Experiment [6] relates to U266. The experiment in a line: Cell proliferation inhibition, MTT assay, U266. The following applies: Homo sapiens, U-266, 72 h, U266 multiple myeloma cells, 3-day proliferation.
From the text: as §1

Experiment [7] has as its system My7. The experiment is described as follows: Cell proliferation inhibition, MTT assay, My7. The following applies: Homo sapiens, Multiple myeloma cell, 72 h, My7 multiple myeloma cells, 3-day proliferation.
From the text: as §1

The subject of experiment [8] is SKMM2. The experiment in a line: Cell proliferation inhibition, MTT assay, SKMM2. The conditions noted are these: Homo sapiens, SK-MM-2, 72 h, SKMM2 multiple myeloma cells, 3-day proliferation.
From the text: as §1

Experiment [9] relates to CPM2. The experiment is described as follows: Cell proliferation inhibition, MTT assay, CPM2. The following applies: Homo sapiens, Multiple myeloma cell, 72 h, CPM2 multiple myeloma cells, 3-day proliferation.
From the text: as §1

Experiment [10] concerns MM1s. The experiment in a line: Cell proliferation inhibition, MTT assay, MM1s. The following applies: Homo sapiens, MM1.S, 72 h, MM1S multiple myeloma cells, 3-day proliferation.
From the text: as §1

Experiment [11] relates to KMS11. The experiment in a line: Cell proliferation inhibition, MTT assay, KMS11. The following applies: Homo sapiens, KMS-11, 72 h, KMS11 multiple myeloma cells, 3-day proliferation.
From the text: as §1

The subject of experiment [12] is CHO (chinese hamster ovary). The experiment in a line: Cell proliferation inhibition, MTT assay, CHO. The conditions noted are these: Cricetulus griseus, 72 h, CHO cells, 3-day proliferation.
From the text: as §1

Experiment [13] deals with HEK293 (human normal embryonic kidney). The experiment is described as follows: Cell proliferation inhibition, MTT assay, HEK293. The following applies: 72 h, HEK293 cells, 3-day proliferation, read-out: HEK IC50.
From the text: as §1

Experiment [14] has as its system H929. The experiment is described as follows: Cell proliferation inhibition, MTT assay, H929. The conditions noted are these: Homo sapiens, NCI-H929, 72 h, H929 multiple myeloma cells, 3-day proliferation.
From the text: as §1

The test system of experiment [15] is MM1r. The experiment is described as follows: Cell proliferation inhibition, MTT assay, MM1r. The following applies: Homo sapiens, MM.1R, 72 h, MM1R multiple myeloma cells, 3-day proliferation.
From the text: as §1

The subject of experiment [16] is UTMC2. The experiment is described as follows: Cell proliferation inhibition, MTT assay, UTMC2. The conditions noted are these: Homo sapiens, 72 h, UTMC2 multiple myeloma cells, 3-day proliferation.
From the text: as §1

As for `Cc1ccc(OCC(=O)CNc2cc[nH]c(=O)c2-c2nc3cc4c(cc3[nH]2)CN(C2CCN(C)CC2)C4=O)c(C)c1` [drawing 845], the half-inhibitory concentration (IC50) in [1] is 1 to 5 µM; in [2], 5 to 20 µM; in [3], 1 to 5 µM; in experiment [4], 1 to 5 µM; in experiment [5], 1 to 5 µM; in experiment [6], 1 to 5 µM. Further, the concentration for half-maximal inhibition (IC50) in experiment [7] lay within 1 to 5 µM; in [8], 5 to 20 µM.

Regarding `Cc1ccc(OCC(=O)CNc2cc[nH]c(=O)c2-c2nc3cc4c(cc3[nH]2)CN(C2CCN(C)CC2)C4=O)c(C)c1` [drawing 838], the IC50 is 1 to 5 µM in experiment [9]; less than 0.5 µM in experiment [10]; 1 to 5 µM in [11]; no less than 20 µM in experiment [12]; no less than 20 µM in experiment [13]; less than 0.5 µM in experiment [14]. The IC50 in experiment [15] and in [16] was 0.5 to 1 µM throughout.

For the molecule `CN1CCC(N2Cc3cc4[nH]c(-c5c(NCC(=O)COc6ccccc6Br)cc[nH]c5=O)nc4cc3C2=O)CC1` [drawing 848], the IC50 in [1] fell in the range of 1 to 5 µM; in experiment [2], 5 to 20 µM; in experiment [3], 1 to 5 µM; in experiment [4] it was 1 to 5 µM; in [5], 0.5 to 1 µM; in experiment [6], 1 to 5 µM. The half-maximal inhibitory concentration (IC50) in experiment [7] and in [8] was 1 to 5 µM each time.

In the case of `COc1ccc(OCC(=O)CNc2cc[nH]c(=O)c2-c2nc3cc4c(cc3[nH]2)C(=O)N(C2CCN(C)CC2)C4)c(Cl)c1` [drawing 850], the IC50 in experiment [1] is 5 to 20 µM; in experiment [2], 5 to 20 µM; in experiment [3], 1 to 5 µM; in [4] it was 1 to 5 µM; in experiment [5], 1 to 5 µM; in experiment [6] it was 1 to 5 µM. Also, the half-inhibitory concentration (IC50) in experiment [7] and in [8] was 5 to 20 µM in each case.

Take `Cc1ccc(OCC(=O)CNc2cc[nH]c(=O)c2-c2nc3cc4c(cc3[nH]2)CN(CCCN2CCCC2)C4=O)c(C)c1` [drawing 847]: the IC50 in experiment [1], in experiment [2], in experiment [3], in experiment [4], in experiment [5] and in experiment [6] was 5 to 20 µM in each case. Further, the IC50 in experiment [7] and in [8] was 5 to 20 µM in each case.

Consider `CCc1cc2c(cc1OCC(=O)CNc1cc[nH]c(=O)c1-c1nc3cc4c(cc3[nH]1)C(=O)N(C1CCN(C)CC1)C4)OCO2` [drawing 849], for which the IC50 in experiment [1] was in the range of 5 to 20 µM; in experiment [2], 5 to 20 µM; in experiment [3], 5 to 20 µM; in experiment [4], 1 to 5 µM; in [5] it was 1 to 5 µM; in experiment [6], 1 to 5 µM. Also, the values for the IC50 in experiment [7] and in experiment [8] were 1 to 5 µM and 5 to 20 µM, respectively.

On to `CN1CCC(N2Cc3cc4[nH]c(-c5c(NCC(=O)COc6ccccc6Br)cc[nH]c5=O)nc4cc3C2=O)CC1` [drawing 841], for which the half-maximal inhibitory concentration (IC50) in [9] was 1 to 5 µM; in [10], less than 0.5 µM; in [11], 1 to 5 µM; in experiment [12], no less than 20 µM; in experiment [13], no less than 20 µM; in experiment [14] it was less than 0.5 µM. The IC50 in experiment [15] was 0.5 to 1 µM; in experiment [16], less than 0.5 µM.

The IC50 is the concentration needed to halve the response being measured.
